Assay results taken from patent US20180339051A1, “COMPOSITION FOR TOPICAL APPLICATION COMPRISING DIMETHYL ISOSORBIDE, A POLYOL, AND A PHENOLIC OR POLYPHENOLIC ANTIOXIDANT” (MEDSKIN SOLUTIONS DR. SUWELACK AG, priority 2015, published 2018).

Legend:
[1] = format: physicochemical
Description: Concretely, 10 ml of a pure solvent or a solubiliser mixture were stirred in a beaker at ambient temperature. An amount of 2 mg phenolic or polyphenolic antioxidant was dispersed in the mixture and stirred. If the mixture became clear, the addition of phenolic or polyphenolic antioxidant was repeated until the mixture remained turbid even after stirring for 10 min. The maximum solubility was calculated as a percentage by mass (wt %) based on this experiment.

pig skin biopsies = test: Skin Antioxidative Potential (SAP), ESR with test radical TEMPO, ex vivo; format: cell-based; details: normalized to placebo-treated skin = 100%
Source text: Skin has intrinsic antioxidative protection thanks to the many enzymatic and non-enzymatic antioxidant systems present in the epidermis. A Skin Antioxidative Potential (SAP) can be measured by ESR spectroscopy using an active test radical that is reduced by the antioxidant systems inside the epidermis and dermis. The SAP value is a quantitative ex vivo determination of the antioxidant activity inside the epidermal and dermal layers of the skin.
In contrast, if the SAP value is below 100%, the topical treatment has diminished the skin's antioxidant defense system. Topical treatments with such negative effects on the skin antioxidant system are for example application of a chemical such as detergents or physical stress such as sun exposure.
The method entails applying the composition comprising the active substance (in this case resveratrol) to pig skin biopsies and testing the antioxidative power of the active substance. The antioxidative effect is dependent on whether the active substance is absorbed into the skin.
The measurements mere carried out as follows. Skin biopsies obtained from local slaughterhouse (pig skin, 6 month old animals, external lobe of the ears) were washed, the subdermal fat was removed and the skin was cut in 2×2 cm pieces.
Emulsions made as in example 2, with or without resveratrol, and with or without a solubiliser mix (dimethyl isosorbide, 1,5-pentanediol and panthenol) were applied on the epidermal layer of the biopsies. Skin pieces were placed on a filter paper saturated with the test radical (TEMPO, 2,2,6,6-tetramethyl piperidine-N-oxyl, Sigma-Aldrich, Munich, Germany). Skin biopsies of 4 cm were taken, placed in a special ESR tissue cell and ESR spectra of the test radical were recorded in a time-course experiment.
The amplitudes of the ESR spectra were plotted against time and the obtained kinetics were fitted using a mono-exponential first order decay algorithm.
The measurements were made after penetration times of between ten minutes and four hours. All values were normalized to the placebo-treated skin. […]

Molecule | solubility in water [1] | SAP value (pig skin biopsies; penetration time 10 min) [%] | SAP value (pig skin biopsies; penetration time 30 min) [%] | SAP value (pig skin biopsies; penetration time 120 min) [%]
Oc1ccc(/C=C/c2cc(O)cc(O)c2)cc1 [Resveratrol, 3,5,4′-trihydroxy-trans-stilbene] | less than 0.01 wt % | – | – | –
tocopherol | – | 114 ± 3 | 103 ± 6 | 100 ± 6
